Reference: patent publication US7932271B2, “Heterocyclic methyl sulfone derivative” (Daiichi Pharmaceutical Co., Ltd., priority 2003, dated 2011)
Structures can show the parent of a compound that is named as a salt.

| SMILES | melting point [°C] |
| --- | --- |
| CN(C)S(=O)(=O)NCc1ccc(C(c2cc(F)ccc2F)S(=O)(=O)c2ccc(Cl)cc2)nc1 (centres unmarked) [Example 68, N-[[6-[(4-Chlorophenylsulfonyl)(2,5-difluorophenyl)methyl]pyridin-3-yl]methyl]-N′,N′-dimethylsulfamide] | 177 to 178 |
| O=S(=O)(c1ccc(Cl)cc1)C(c1cc(F)ccc1F)c1cc(Cl)ncc1Cl (centres unmarked) (hydrate or solvate) [Example 57, 2,5-Dichloro-4-[(4-chlorophenylsulfonyl)-(2,5-difluorophenyl)methyl]pyridine 0.5 hydrate] | 147 to 148 |
| O=C(O)/C=C/c1ccc(C(c2cc(F)ccc2F)S(=O)(=O)c2ccc(Cl)cc2)nc1 (centres unmarked) [Example 135, (E)-3-[6-[(4-Chlorophenylsulfonyl)(2,5-difluorophenyl)methyl]pyridin-3-yl]acrylic acid] | 236 to 238 |
| NCCCNc1cc(C(c2cc(F)ccc2F)S(=O)(=O)c2ccc(Cl)cc2)c(Cl)cn1 (centres unmarked) (as salt: hydrochloride) [Example 173, N-[5-Chloro-4-[(4-chlorophenylsulfonyl)-(2,5-difluorophenyl)methyl]pyridin-2-yl]propane-1,3-diamine dihydrochloride] | 193 to 195 |
| O=C1C(C(c2cc(F)ccc2F)S(=O)(=O)c2ccc(Cl)cc2)CCCN1CCCO (centres unmarked) [Example 153, 3-[(4-Chlorophenylsulfonyl)(2,5-difluorophenyl)methyl]-1-(3-hydroxypropyl)piperidin-2-one] | 120 to 121 |
| NC(=O)/C=C/c1ccc(C(c2cc(F)ccc2F)S(=O)(=O)c2ccc(Cl)cc2)nc1 (centres unmarked) [Example 136, (E)-3-[6-[(4-Chlorophenylsulfonyl)(2,5-difluorophenyl)methyl]pyridin-3-yl]acrylamide] | 219 to 220 |
| Cc1ccc(S(=O)(=O)NCC(=O)NCc2ccc(C(c3cc(F)ccc3F)S(=O)(=O)c3ccc(Cl)cc3)nc2)cc1 (centres unmarked) [Example 70, N-[[6-[(4-Chlorophenylsulfonyl)(2,5-difluorophenyl)methyl]pyridin-3-yl]methyl]-2-(4-methylphenylsulfonylamino)acetamide] | 217 to 218 |
| O=S(=O)(c1ccc(Cl)cc1)C(c1cccc(CCc2ccccn2)n1)c1cc(F)ccc1F (centres unmarked) [Example 152, 2-[(4-Chlorophenylsulfonyl)(2,5-difluorophenyl)methyl]-6-(2-pyridin-2-ylethyl)pyridine] | 88 to 89 |
| O=S(=O)(c1ccc(Cl)cc1)C(c1cc(F)ccc1F)C1CCOCC1 (centres unmarked) [Example 34, 4-[[(4-Chlorophenyl)sulfonyl](2,5-difluorophenyl)methyl]tetrahydropyrane] | 150 to 152 |
| O=S(=O)(c1ccc(Cl)cc1)C(c1ccncc1)C1CCCC1 (centres unmarked) [Example 2, 4-[(4-Chlorophenylsulfonyl)(cyclopentyl)methyl]pyridine] | 133 to 135 |
| CC(C)(CO)CNc1cc(C(c2cc(F)ccc2F)S(=O)(=O)c2ccc(Cl)cc2)c(Cl)cn1 (centres unmarked) [Example 195, 3-[5-Chloro-4-[(4-chlorophenylsulfonyl)(2,5-difluorophenyl)methyl]pyridin-2-ylamino]-2,2-dimethylpropan-1-ol] | 176 to 178 |
| O=S(=O)(c1ccc(Cl)cc1)C(c1cc(F)ccc1F)C1CCSCC1 (centres unmarked) [Example 35, 4-[[(4-Chlorophenyl)sulfonyl](2,5-difluorophenyl)methyl]tetrahydrothiopyrane] | 150 to 152 |
| O=C(Nc1ccon1)c1cnc(C(c2cc(F)ccc2F)S(=O)(=O)c2ccc(Cl)cc2)c(F)c1 (centres unmarked) [Example 129, 6-(4-Chlorophenylsulfonyl)(2,5-difluorophenyl)methyl-5-fluoro-N-isoxazol-3-ylnicotinamide] | 200 to 202 |
| Cc1cccnc1C(c1cc(F)ccc1F)S(=O)(=O)c1ccc(Cl)cc1 (centres unmarked) [Example 14, 2-[[(4-Chlorophenyl)sulfonyl]-(2,5-difluorophenyl)methyl]-3-methylpyridine] | 142 to 143 |
| O=S(=O)(c1ccc(Cl)cc1)C(c1cc(F)ccc1F)c1cc(CO)ncc1Cl (centres unmarked) [Example 257, [5-Chloro-4-[(4-chlorophenylsulfonyl)(2,5-difluorophenyl)methyl]pyridin-2-yl]methanol] | 164 to 165 |
| O=S(=O)(c1ccc(Cl)cc1)C(c1cc[n+]([O-])cc1)c1cc(F)ccc1F (centres unmarked) [Example 52, 4-[(4-Chlorophenylsulfonyl)-(2,5-difluorophenyl)methyl]pyridine-N-oxide] | 211 to 212 |
| Fc1ccc(SC(c2cc(F)ccc2F)c2cc(Cl)ncc2Cl)cc1 (centres unmarked) [Example 177, 2,5-Dichloro-4-[(2,5-difluorophenyl)-(4-fluorophenylthio)methyl]pyridine] | 95 to 97 |
| O=S(=O)(c1ccc(Cl)cc1)C(c1ccc(CN2CCOCC2)cn1)c1cc(F)ccc1F (centres unmarked) [Example 49, 4-[[6-[(4-Chlorophenylsulfonyl)-(2,5-difluorophenyl)methyl]pyridin-3-yl]methyl]morpholine] | 120 to 121 |
| O=S(=O)(c1ccc(Cl)cc1)C(c1ccc(CN2CCCCC2)cn1)c1cc(F)ccc1F (centres unmarked) [Example 48, 2-[(4-Chlorophenylsulfonyl)-(2,5-difluorophenyl)methyl]-5-(piperidin-1-ylmethyl)pyridine] | 113 to 114 |

| SMILES | melting point [°C] |
| --- | --- |
| COC(=O)/C=C/c1ccc(C(c2cc(F)ccc2F)S(=O)(=O)c2ccc(Cl)cc2)nc1 (centres unmarked) [Example 44, Methyl 3-[6-[(4-chlorophenylsulfonyl)-(2,5-difluorophenyl)methyl]pyridin-3-yl]acrylate] | 145 to 146 |
| CC(=O)NCCCNc1cc(C(c2cc(F)ccc2F)S(=O)(=O)c2ccc(Cl)cc2)c(Cl)cn1 (centres unmarked) [Example 174, N-[3-[[5-Chloro-4-[(4-chlorophenylsulfonyl)-(2,5-difluorophenyl)methyl]pyridin-2-yl]amino]propyl]acetamide] | 103 to 105 |
| O=S(=O)(c1ccc(Cl)cc1)C(c1cncnc1)c1cc(F)ccc1F (centres unmarked) [Example 21, 5-[[(4-Chlorophenyl)sulfonyl]-(2,5-difluorophenyl)methyl]pyrimidine] | 136 to 137 |
| O=S(=O)(c1ccc(Cl)cc1)C(c1cc(F)ccc1F)c1cc(NCCc2ccncc2)ncc1Cl (centres unmarked) [Example 181, 5-Chloro-4-[(4-chlorophenylsulfonyl)(2,5-difluorophenyl)methyl]-2-[2-(pyridin-4-yl)ethylamino]pyridine] | 148 to 150 |
| O=C(O)c1ccc(C(c2cc(F)ccc2F)S(=O)(=O)c2ccc(Cl)cc2)nc1 (centres unmarked) [Example 50, [6-[(4-Chlorophenylsulfonyl)-(2,5-difluorophenyl)methyl]pyridin-3-yl]carboxylic acid] | > 230 |
| O=c1oc2ccccc2c(O)c1C(Sc1ccc(Cl)cc1)c1cc(F)ccc1F (centres unmarked) | 146 to 147 |
| CS(=O)(=O)NCCCNc1cc(C(c2cc(F)ccc2F)S(=O)(=O)c2ccc(Cl)cc2)c(Cl)cn1 (centres unmarked) [Example 189, N-[3-[[5-Chloro-4-[(4-chlorophenylsulfonyl)-(2,5-difluorophenyl)methyl]pyridin-2-yl]amino]propyl]methanesulfonamide] | 138 to 139 |
| Cn1c(Cl)cnc1C(c1cc(F)ccc1F)S(=O)(=O)c1ccc(Cl)cc1 (centres unmarked) [Example 29, 2-[[(4-Chlorophenyl)sulfonyl]-(2,5-difluorophenyl)methyl]-1-methyl-5-chloro-1H-imidazole] | 179 to 180 |
| Fc1ccc(F)c(C(Sc2ccc(Cl)cc2)c2cc(Cl)ncc2Cl)c1 (centres unmarked) [Example 54, 2,5-Dichloro-4-[(4-chlorophenylthio)-(2,5-difluorophenyl)methyl]pyridine] | 128 to 129 |
| COc1cccnc1C(c1cc(F)ccc1F)S(=O)(=O)c1ccc(Cl)cc1 (centres unmarked) [Example 17, 2-[[(4-Chlorophenyl)sulfonyl]-(2,5-difluorophenyl)methyl]-3-methoxypyridine] | 184 to 185 |
| Cc1ccc(C(c2cc(F)ccc2F)S(=O)(=O)c2ccc(Cl)cc2)nc1 (centres unmarked) [Example 15, 2-[[(4-Chlorophenyl)sulfonyl]-(2,5-difluorophenyl)methyl]-5-methylpyridine] | 159 to 160 |
| COCCCNc1cc(C(c2cc(F)ccc2F)S(=O)(=O)c2ccc(Cl)cc2)c(Cl)cn1 (centres unmarked) [Example 184] | 146 to 148 |
| COc1ccc(CNc2cc(C(c3cc(F)ccc3F)S(=O)(=O)c3ccc(Cl)cc3)c(Cl)cn2)cc1OC (centres unmarked) [Example 186, 5-Chloro-4-[(4-chlorophenylsulfonyl)(2,5-difluorophenyl)methyl]-2-(3,4-dimethoxybenzylamino)pyridine] | 204 to 206 |
| O=C(O)CCCc1cc(C(c2cc(F)ccc2F)S(=O)(=O)c2ccc(Cl)cc2)c(Cl)cn1 (centres unmarked) [Example 289, 4-[5-Chloro-4-[(4-chlorophenylsulfonyl)(2,5-difluorophenyl)methyl]pyridin-2-yl]butyric acid] | 147 to 148 |
| CC(C)(C)OC(=O)N1CCC(C(c2cc(F)ccc2F)S(=O)(=O)c2ccc(Cl)cc2)CC1 (centres unmarked) [Example 37, t-Butyl 4-[[(4-chlorophenyl)sulfonyl](2,5-difluorophenyl)methyl]-1-piperidinecarboxylate] | 193 to 196 |
| O=S(=O)(c1ccc(Cl)cc1)C(c1cc(F)ccc1F)c1ncc(CO)cc1F (centres unmarked) [Example 125, [6-(4-Chlorophenylsulfonyl)(2,5-difluorophenyl)methyl-5-fluoropyridin-3-yl]methanol] | 181 to 183 |
| O=C(NCCO)c1ccc(C(c2cc(F)ccc2F)S(=O)(=O)c2ccc(Cl)cc2)nc1 (centres unmarked) [Example 140, 6-[(4-Chlorophenylsulfonyl)(2,5-difluorophenyl)methyl]-N-(2-hydroxyethyl)nicotinamide] | 179 to 181 |
| O=S(=O)(c1ccc(Cl)cc1)C(c1ccncc1)C1CCOCC1 (centres unmarked) [Example 3, 4-[(4-Chlorophenylsulfonyl)(tetrahydropyran-4-yl)methyl]pyridine] | 208 to 209 |
| NCCNc1cc(C(c2cc(F)ccc2F)S(=O)(=O)c2ccc(Cl)cc2)c(Cl)cn1 (centres unmarked) (as salt: hydrochloride) [Example 193, N-[5-Chloro-4-[(4-chlorophenylsulfonyl)-(2,5-difluorophenyl)methyl]pyridin-2-yl]ethane-1,2-diamine dihydrochloride] | 163 to 166 |
